From patent publication US20230263748A1, “APPLICATION OF BENFLUMETOL AND DERIVATIVES THEREOF IN TREATMENT OF CORONAVIRUS INFECTION” (ACADEMY OF MILITARY MEDICAL SCIENCES, priority 2020, published 2023)
Like-named read-outs stand apart in the source and are kept apart here.

Assays:
SARS-CoV-2 = format: cell-based; details: for Viral genome copy number (MOI = 0.05): supernatant
Vero E6 cells = assay: Detection of drug cytotoxicity by CCK-8 kit; format: cell-based; details: for Cell viability (% of negative control): Vero E6, 48 h
Description: The detection of drug cytotoxicity was performed by CCK-8 kit (Beoytime). Specific steps were as follows: • (1) 1×10^4 Vero E6 (ATCC) cells were inoculated in a 96-well plate and cultured at 37° C. for 8 hours. • (2) The drug was diluted with DMSO to obtain a stock solution with an appropriate concentration, and then diluted with MEM medium (purchased from Gibco, Cat. No. 10370021) containing 2% FBS (purchased from Gibco, Cat. No. 16000044) to the same concentration as that for the drug treatment. The original medium in the 96-well plate was discarded, 100 μL of drug-containing MEM medium was added to the cells, and three replicate wells were set for each concentration. Negative control (adding DMSO and medium to the cell wells, without adding drug) and blank control (no cells, adding DMSO and medium) were set. After the drug was added, the cells were cultured at 37° C. for 48 hours. • (3) 20 μL of CCK-8 solution (Beoytime) was added to the wells to be tested, mixed gently without generating air bubbles, and incubation was continued at 37° C. for 2 hours. OD450 was read on a microplate reader (purchased from Molecular Devices, model: SpectraMax M5), and cell viability was calculated:
Cell viability (%)=(A(drug treatment group)−A(blank control))/(A(negative control)−A(blank control))×100% • wherein A represents reading of microplate reader.

CCCCN(CCCC)CC(O)c1cc(Cl)cc2c1-c1ccc(Cl)cc1/C2=C/c1ccc(Cl)cc1 (centres unmarked) [benflumetol]
Viral genome copy number (MOI = 0.05) (SARS-CoV-2; 3.13 μM, Vero E6 cells, 48 h after infection): 125717580 | Viral genome copy number (MOI = 0.05) (SARS-CoV-2; 6.25 μM, Vero E6 cells, 48 h after infection): 87462582 | Viral genome copy number (MOI = 0.05) (SARS-CoV-2; 12.5 μM, Vero E6 cells, 48 h after infection): 87790130 | Viral genome copy number (MOI = 0.05) (SARS-CoV-2; 25 μM, Vero E6 cells, 48 h after infection): 48801530 | Viral genome copy number (MOI = 0.05) (SARS-CoV-2; 50 μM, Vero E6 cells, 48 h after infection): 20512679 | Viral genome copy number (MOI = 0.05) (SARS-CoV-2; 100 μM, Vero E6 cells, 48 h after infection): 2927366 | Inhibition of viral RNA load on cells, dose dependence (in words) (SARS-CoV-2; Vero E6 cells, 48 h after infection, FIG. 1): the inhibitory activity was dose-dependent | Inhibition of replication of the SARS-CoV-2 virus genome in the infection supernatant (in words) (SARS-CoV-2; at 100 μM, 50 μM and 25 μM): effectively inhibit the replication of the SARS-CoV-2 virus genome | Cell viability (% of negative control) (Vero E6 cells; 0.78 μM): 92.88% | Cell viability (% of negative control) (Vero E6 cells; 1.56 μM): 94.55% | Cell viability (% of negative control) (Vero E6 cells; 3.13 μM): 96.69% | Cell viability (% of negative control) (Vero E6 cells; 6.25 μM): 106.70% | Cell viability (% of negative control) (Vero E6 cells; 12.5 μM): 108.69% | Cell viability (% of negative control) (Vero E6 cells; 25 μM): 113.54% | Cell viability (% of negative control) (Vero E6 cells; 50 μM): 115.52% | Cell viability (% of negative control) (Vero E6 cells; 100 μM): 122.12% | Toxic effect on the cells (in words) (Vero E6 cells; all test concentrations): no toxic effect on the cells at all concentrations
